According to patent US6642251B1, “Geometrically restricted 2-indolinone derivatives as modulators of protein kinase activity” (Sugen, Inc., priority 1998, dated 2003):

Assays:
EGFR = EGFR (Homo sapiens, UniProt P00533); experiment: Biochemical EGFR assay (bio EGFR), ELISA; set-up: A431 cell lysate (Screening Lab, SUGEN, Inc.); endogenous in cells; host or cells: A431; conditions: 50% inhibition of target PTK activity; read-out: bio EGFR (Page 5) IC50
Protocol: This assay measures the in vitro kinase activity of EGFR using ELISA.
6. A431 cell lysate (Screening Lab, SUGEN, Inc.)
1. Coat Corning 96 well ELISA plates with 0.5 μg […] in
100 μl PBS per well, store overnight at 4° C.
2. Remove unbound SUMO1 from wells by inverting plate to remove liquid. Wash 1× with dH2O. Pat the plate on a paper towel to remove excess liquid.
(§1) 3. Add 150 μl of Blocking Buffer to each well. Incubate for 30 min. at room temperature with shaking.
(§2) 4. Wash plate 3× with deionized water, then once with TBST. Pat plate on a paper towel to remove excess liquid and bubbles.
5. Dilute lysate in PBS (7 μg lysate/100 μl PBS).
(§3) 6. Add 100 μl of diluted lysate to each well. Shake at room temperature for 60 min.
(§4) 7. Wash plates as described in 4, above.
8. Add 120 μl TBS to ELISA plate containing captured EGFR.
9. Dilute test compound 1:10 in TBS in 96-well polypropylene plates (ie. 10 μl compound+90 μl TBS).
10. Add 13.5 μl diluted test compound to ELISA plate.
(§5) 11. Incubate for 30 minutes while shaking at room temperature.
13. After 5 minutes, stop reaction by adding 16.5 μl of 200 mM EDTA (pH 8.0) to each well, shaking continuously. After the EDTA has been added, shake for 1 min.
(§6) 14. Wash 4× with deionized water, twice with TBST.
15. Add 100 μl anti-phosphotyrosine (1:3000 dilution.in TBST) per well. Incubate 30-45 min. at room temperature, with shaking.
(§7) 16. Wash as described in 4, above.
17. Add 100 μl Biosource Goat anti-rabbit IgG peroxidase conjugate (1:2000 dilution in TBST) to each well. Incubate 30 min. at room temperature, with shaking.
(§8) 18. Wash as described in 4, above.
(§9) 19. Add 100 μl of ABTS/H2O2 solution to each well.
20. Incubate 5 to 10 minutes with shaking. Remove any bubbles.
(§10) 21. If necessary stop reaction with the addition of 100 μl 0.2 M HCl per well.
22. Read assay on Dynatech MR7000 ELISA reader. Test Filter: 410 nM Reference Filter: 630 nM

Pyk2 = Pyk2 (Homo sapiens, UniProt Q14289); experiment: Pyk2 assay; format: biochemical; on Pyk2, outcome of primary assay: key: DNH = did not hit in primary assay
Pyk2, sequence (Q14289 whole entry, species assumed): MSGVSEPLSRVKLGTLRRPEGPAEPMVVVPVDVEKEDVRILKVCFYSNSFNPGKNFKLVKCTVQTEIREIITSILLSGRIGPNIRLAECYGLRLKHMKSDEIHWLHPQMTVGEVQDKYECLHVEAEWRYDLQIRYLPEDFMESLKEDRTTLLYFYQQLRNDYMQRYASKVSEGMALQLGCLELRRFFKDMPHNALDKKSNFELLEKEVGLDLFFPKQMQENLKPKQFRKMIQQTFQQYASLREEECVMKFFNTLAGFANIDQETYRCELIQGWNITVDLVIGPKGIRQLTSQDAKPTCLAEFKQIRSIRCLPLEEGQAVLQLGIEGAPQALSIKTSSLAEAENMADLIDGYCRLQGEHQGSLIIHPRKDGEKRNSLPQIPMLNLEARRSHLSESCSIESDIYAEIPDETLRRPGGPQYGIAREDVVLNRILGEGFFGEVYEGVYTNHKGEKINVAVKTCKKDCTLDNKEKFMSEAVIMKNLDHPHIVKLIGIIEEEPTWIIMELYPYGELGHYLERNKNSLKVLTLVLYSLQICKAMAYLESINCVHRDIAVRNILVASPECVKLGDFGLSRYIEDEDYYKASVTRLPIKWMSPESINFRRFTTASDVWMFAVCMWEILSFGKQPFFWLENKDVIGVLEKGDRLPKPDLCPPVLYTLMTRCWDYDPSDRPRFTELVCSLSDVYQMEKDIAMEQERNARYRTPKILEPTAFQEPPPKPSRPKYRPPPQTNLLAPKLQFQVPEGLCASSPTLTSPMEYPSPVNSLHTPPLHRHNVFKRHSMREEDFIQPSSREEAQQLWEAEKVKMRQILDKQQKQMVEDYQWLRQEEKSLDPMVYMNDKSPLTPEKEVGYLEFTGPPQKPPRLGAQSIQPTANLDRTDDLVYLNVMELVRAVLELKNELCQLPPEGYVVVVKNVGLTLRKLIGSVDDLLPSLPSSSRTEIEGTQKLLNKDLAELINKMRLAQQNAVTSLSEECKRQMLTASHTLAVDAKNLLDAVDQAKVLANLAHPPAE

IGF-1 receptor = target: T1, IGF-1 receptor (Homo sapiens, UniProt P08069); experiment: Cellular IGF-1 receptor assay (cell IGF); format: cell-based; on cell IGF, outcome of primary assay: key: DNH = did not hit in primary assay
T1 construct: expressed in transfected cells; host or cells: NIH3T3/IGF-1R
T1 sequence (P08069 31-1367): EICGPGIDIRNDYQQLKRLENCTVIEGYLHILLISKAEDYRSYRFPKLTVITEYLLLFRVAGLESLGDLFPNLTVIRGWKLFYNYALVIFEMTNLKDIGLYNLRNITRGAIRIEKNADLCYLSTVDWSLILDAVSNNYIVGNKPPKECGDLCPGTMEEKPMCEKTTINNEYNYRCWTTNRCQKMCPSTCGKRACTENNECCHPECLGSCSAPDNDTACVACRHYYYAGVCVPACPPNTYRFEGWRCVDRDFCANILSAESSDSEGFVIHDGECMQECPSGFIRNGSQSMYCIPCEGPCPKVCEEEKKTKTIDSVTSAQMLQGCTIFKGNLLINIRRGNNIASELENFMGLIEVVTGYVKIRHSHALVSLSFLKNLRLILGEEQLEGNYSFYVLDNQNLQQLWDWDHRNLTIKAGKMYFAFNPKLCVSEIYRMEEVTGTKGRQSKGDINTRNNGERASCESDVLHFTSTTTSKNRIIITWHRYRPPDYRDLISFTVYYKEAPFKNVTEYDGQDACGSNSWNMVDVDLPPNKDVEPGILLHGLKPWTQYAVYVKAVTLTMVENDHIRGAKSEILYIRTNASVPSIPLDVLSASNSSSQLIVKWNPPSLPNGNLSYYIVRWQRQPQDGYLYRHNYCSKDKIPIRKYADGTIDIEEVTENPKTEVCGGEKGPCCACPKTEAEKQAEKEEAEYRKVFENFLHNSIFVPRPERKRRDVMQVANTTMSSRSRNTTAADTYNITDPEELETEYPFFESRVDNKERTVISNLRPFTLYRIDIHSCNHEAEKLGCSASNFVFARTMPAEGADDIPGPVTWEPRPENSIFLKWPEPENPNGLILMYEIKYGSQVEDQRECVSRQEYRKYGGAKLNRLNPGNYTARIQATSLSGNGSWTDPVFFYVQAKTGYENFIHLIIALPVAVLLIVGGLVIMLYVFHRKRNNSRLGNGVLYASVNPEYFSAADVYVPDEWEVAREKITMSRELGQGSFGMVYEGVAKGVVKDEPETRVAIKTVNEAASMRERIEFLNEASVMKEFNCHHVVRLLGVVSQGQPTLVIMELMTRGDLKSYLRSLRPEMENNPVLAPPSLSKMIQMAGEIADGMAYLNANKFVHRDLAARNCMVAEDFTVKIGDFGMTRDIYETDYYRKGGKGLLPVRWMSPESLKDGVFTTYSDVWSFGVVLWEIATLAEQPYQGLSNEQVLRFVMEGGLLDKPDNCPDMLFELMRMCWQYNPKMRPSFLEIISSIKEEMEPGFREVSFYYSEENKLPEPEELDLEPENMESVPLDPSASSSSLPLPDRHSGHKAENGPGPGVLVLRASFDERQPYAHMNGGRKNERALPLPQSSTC
Protocol: The following protocol may be used to measure phosphotyrosine level on IGF-1 receptor, which indicates IGF-1 receptor tyrosine kinase activity.
a. The cell line used in this assay is 3T3/IGF-1R, a cell line genetically engineered to overexpresses IGF-1 receptor.
2. […] Incubate for 1 day then replace medium to serum-free medium (90/μl) and incubate in 5% CO2 and 37° C. overnight.
2. Remove the coating solution, and replace with 100 μl Blocking Buffer, and shake for 30 minutes. Remove the blocking buffer and wash the plate just before adding lysate.
1. The drugs are tested under serum-free condition.
2. Dilute drug stock (in 100% DMSO) 1:10 with DMEM in 96-well poly-propylene plate, and transfer 10 μl/well of this solution to the cells to achieve final drug dilution 1:100, and final DMSO concentration of 1.0%. Incubate the cells in 5% CO2 at 37° C. for 2 hours.
3. Prepare fresh cell lysis buffer (HNTG*)
4. After drug incubation for two hours, transfer 10 μl/well of 200 nM IGF-1 Ligand in PBS to the cells (Final Conc. is 20 nM), and incubate at 5% CO2 at 37° C. for 10 minutes.
5. Remove media and add 100 μl/well HNTG* and shake for 10 minutes. Look at cells under microscope to see if they are adequately lysed.
6. Use a 12-channel pipette to scrape the cells from the plate, and homogenize the lysate by repeated aspiration and dispensing. Transfer all the lysate to the antibody coated ELISA plate, and shake for 1 hour.
7. Remove the lysate, wash the plate, transfer anti-pTyr (1:3,000 with TBST) 100 μl/well, and shake for 30 minutes.
8. Remove anti-pTyr, wash the plate, transfer TAGO (1:3,000 with TBST) 100 μl/well, and shake for 30 minutes.
9. Remove detection antibody, wash the plate, and transfer fresh ABTS/H2O2 (1.2 μl H2O2 to 10 ml ABTS) 100 μl/well to the plate to start color development.
10. Measure OD at 410 nm with a reference wavelength of 630 nm in Dynatec MR5000.

src protein kinase = target: T2, src protein kinase (Gallus gallus, UniProt P00523); experiment: Biochemical src assay (bio SRC); on bio SRC, outcome of primary assay: key: DNH = did not hit in primary assay
T2 construct: made in house; host or cells: Schizosaccharomyces pombe strain SP200
Protocol: This assay is used to determine src protein kinase activity measuring phosphorylation of a biotinylated peptide as the readout.
a. Yeast transformed with src (Sugen, Inc., Redwood City, Calif.).
1. Coat ELISA plate with 0.5 μg/well anti-src mab in 100 μl of pH 9.6 sodium carbonate buffer; hold at 4° C. overnight.
2. Wash wells once with PBS.
3. Block plate with 0.15 ml 5% milk in PBS for 30 min. at room temperature.
4. Wash plate 5× with PBS.
5. Add 10 μg/well of src transformed yeast lysates diluted in Lysis Buffer (0.1 ml total volume per well). (Amount of lysate may vary between batches.) Shake plate for 20 minutes at room temperature.
1. 4G10 plate: coat 0.5 μg/well 4G10 in 100 μl PBS overnight at 4° C. and block with 150 μl of 5% milk in PBS for 30 minutes at room temperature.
1. Remove unbound proteins.from plates and wash plates 5× with PBS.
2. Add 0.08 ml Kinase Reaction Mixture per well (containing 10 μl of 10×-Kinase Buffer and 10 μM (final concentration) biotin-EEEYEEYEEEYEEEYEEEY per well diluted in water.
3. Add 10 μl of compound diluted in water containing 10% DMSO and pre-incubate for 15 minutes at room temperature.
4. Start kinase reaction by adding 10 μl/well of 0.05 mM ATP in water (5 μM ATP final).
5. Shake ELISA plate for 15 min. at room temperature.
6. Stop kinase reaction by adding 10 μl of 0.5 M EDTA per well.
7. Transfer 90 μl supernatant to a blocked 4G10 coated ELISA plate.
8. Incubate for 30 min. while shaking at room temperature.
9. Wash plate 5× with TBST.
10. Incubate with Vectastain ELITE ABC reagent (100 μl/well) for 30 min. at room temperature.
11. Wash the wells 5× with TBST.
12. Develop with Turbo TMB.

PDGFR = target: T3, PDGFR (Homo sapiens, UniProt P09619); experiment: Biochemical PDGFR assay (bio PDGFR), ELISA; conditions: 50% inhibition of target PTK activity; read-out: bio PDGFR IC50
T3 construct: expressed in transfected cells; host or cells: NIH 3T3
T3 sequence (P09619 33-1106, species assumed): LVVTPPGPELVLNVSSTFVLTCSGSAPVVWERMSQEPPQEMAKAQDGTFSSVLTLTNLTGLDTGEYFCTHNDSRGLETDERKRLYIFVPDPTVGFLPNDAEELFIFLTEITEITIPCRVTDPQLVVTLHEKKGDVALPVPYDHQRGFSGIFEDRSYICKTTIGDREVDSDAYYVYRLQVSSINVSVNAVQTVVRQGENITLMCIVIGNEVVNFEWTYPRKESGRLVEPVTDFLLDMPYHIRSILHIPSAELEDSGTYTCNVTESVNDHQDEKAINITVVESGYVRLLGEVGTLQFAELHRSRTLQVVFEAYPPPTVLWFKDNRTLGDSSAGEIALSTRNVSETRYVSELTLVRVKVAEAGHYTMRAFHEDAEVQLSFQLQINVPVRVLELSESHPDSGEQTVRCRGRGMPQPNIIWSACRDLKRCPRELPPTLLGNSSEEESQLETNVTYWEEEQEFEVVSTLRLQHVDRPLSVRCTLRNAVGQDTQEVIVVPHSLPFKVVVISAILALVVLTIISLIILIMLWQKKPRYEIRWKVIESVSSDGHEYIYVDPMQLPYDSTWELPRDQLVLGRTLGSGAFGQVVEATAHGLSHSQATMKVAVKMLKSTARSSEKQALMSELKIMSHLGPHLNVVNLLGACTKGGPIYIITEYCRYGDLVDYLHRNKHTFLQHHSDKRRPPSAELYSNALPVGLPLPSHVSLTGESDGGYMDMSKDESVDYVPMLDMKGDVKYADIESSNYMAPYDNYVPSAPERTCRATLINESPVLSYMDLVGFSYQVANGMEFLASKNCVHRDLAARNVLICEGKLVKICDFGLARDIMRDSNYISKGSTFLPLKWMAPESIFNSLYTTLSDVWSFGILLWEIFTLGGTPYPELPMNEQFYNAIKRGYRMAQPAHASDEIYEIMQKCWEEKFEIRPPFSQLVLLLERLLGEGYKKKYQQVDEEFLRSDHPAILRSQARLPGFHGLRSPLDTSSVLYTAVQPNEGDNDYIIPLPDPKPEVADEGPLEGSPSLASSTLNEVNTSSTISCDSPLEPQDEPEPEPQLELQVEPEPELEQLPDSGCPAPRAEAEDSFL
Protocol: This assay measures the in vitro kinase activity of PDGFR using ELISA.
6. PDGFR-β expressing NIH 3T3 cell lysate (Screening Lab, SUGEN, Inc.).
1. Coat Corning 96 well ELISA plates with 0.5 μg 28D4C10 in 100 μl PBS per well, store overnight at 4° C.
2. Remove unbound 28D4C10 from wells by inverting plate to remove liquid. Wash 1× with dH2O. Pat the plate on a paper towel to remove excess liquid.
as §1, §2
5. Dilute lysate in HNTG (10 μg lysate/100 μl HNTG)
as §3, §4
8. Add 80 μl working kinase buffer mix to ELISA plate containing captured PDGFR.
10. Add 10 μl diluted test compound to ELISA plate.
as §5
12. Add 10 μl ATP directly to all wells except negative control well (final well volume should be approximately 100 μl with 20 μM ATP in each well.) Incubate 30 minutes while shaking.
13. After 30 minutes, stop reaction by adding 10 μl of 200 mM EDTA (pH 8.0) to each well.
as §6
15. Add 100 μl anti-phosphotyrosine (1:3000 dilution in TBST) per well. Incubate 30-45 min. at room temperature, with shaking.
as §7
17. […] Incubate 30 min. at room temperature, with shaking.
as §8, §9
20. Incubate 10 to 30 minutes with shaking. Remove any bubbles.
as §10

EGFR, sequence (P00533 25-1210): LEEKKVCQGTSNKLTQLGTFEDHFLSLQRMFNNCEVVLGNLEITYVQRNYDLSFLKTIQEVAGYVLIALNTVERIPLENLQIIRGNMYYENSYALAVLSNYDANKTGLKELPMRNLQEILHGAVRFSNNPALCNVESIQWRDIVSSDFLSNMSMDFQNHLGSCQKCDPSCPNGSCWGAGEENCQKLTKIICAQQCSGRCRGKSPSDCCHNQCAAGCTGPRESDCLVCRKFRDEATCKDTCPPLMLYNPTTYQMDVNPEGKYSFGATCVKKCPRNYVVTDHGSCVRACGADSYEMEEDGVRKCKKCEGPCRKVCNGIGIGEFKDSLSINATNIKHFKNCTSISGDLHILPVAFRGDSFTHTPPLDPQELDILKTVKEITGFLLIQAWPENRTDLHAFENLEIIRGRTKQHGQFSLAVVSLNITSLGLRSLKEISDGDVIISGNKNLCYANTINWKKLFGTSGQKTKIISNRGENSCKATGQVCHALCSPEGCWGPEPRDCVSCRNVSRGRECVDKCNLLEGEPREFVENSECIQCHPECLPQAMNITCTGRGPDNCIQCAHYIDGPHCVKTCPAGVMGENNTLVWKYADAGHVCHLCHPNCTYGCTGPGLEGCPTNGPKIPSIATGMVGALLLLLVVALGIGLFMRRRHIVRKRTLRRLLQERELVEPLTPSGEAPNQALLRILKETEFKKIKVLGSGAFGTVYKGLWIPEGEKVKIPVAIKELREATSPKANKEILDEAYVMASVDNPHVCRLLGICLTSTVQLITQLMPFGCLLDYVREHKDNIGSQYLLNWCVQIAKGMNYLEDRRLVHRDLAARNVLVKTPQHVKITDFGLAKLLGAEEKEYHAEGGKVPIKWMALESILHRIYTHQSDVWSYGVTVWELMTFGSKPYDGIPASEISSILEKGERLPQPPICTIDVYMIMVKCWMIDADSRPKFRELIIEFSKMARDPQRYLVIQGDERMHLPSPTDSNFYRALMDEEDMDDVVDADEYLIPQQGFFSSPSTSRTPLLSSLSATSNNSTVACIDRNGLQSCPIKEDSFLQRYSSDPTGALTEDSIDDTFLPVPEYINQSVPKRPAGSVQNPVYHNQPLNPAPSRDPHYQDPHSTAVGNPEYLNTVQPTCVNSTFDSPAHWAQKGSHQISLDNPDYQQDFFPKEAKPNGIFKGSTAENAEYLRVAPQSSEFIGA

IC50 (EGFR) [µM] | Pyk2, outcome of primary assay (Pyk2; primary assay) | cell IGF, outcome of primary assay (IGF-1 receptor; primary assay) | bio SRC, outcome of primary assay (src protein kinase; primary assay) | IC50 (PDGFR) [µM] | IC50 (Pyk2; 50% inhibition of target PTK activity, read-out: Pyk2 IC50) [µM] | cell IGF % Inh (IGF-1 receptor; concentration not given) [% Inh] | IC50 (src protein kinase; 50% inhibition of target PTK activity) [µM] | Structure (SMILES)
> 100 | DNH | DNH | DNH | > 100 | – | – | – | COc1ccc2c(c1)/C(=C1\C(=O)Nc3ccccc31)CC2 [Compound 4, 3-(6-Methoxyindan-1-ylidene)-1,3-dihydroindol-2-one]
> 100 | – | – | – | 5.5 | 8.1 | 96.7 | > 100 | Nc1ccc2c(c1)CC/C2=C1/C(=O)Nc2ccccc21 [Compound 6, 3-(5-Aminoindan-1-ylidene)-1,3-dihydroindol-2-one]
